Measured values published in PubChem BioAssay (NCI).
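Step 1: Grow cells in 96-well plates. Step 2: Expose to compound for 48 hours at 5 concentrations. Step 3: Interpolate endpoints linearly; if unreached, use highest concentration. At the GI50, growth is halved. TGI: total growth inhibition.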

Columns and labels:
Experiment in all cases: NCI-60 cell line screen, 48 h
[1] = system: A549 NSCLC
[2] = system: HCT-15 colon
[3] = system: HL-60(TB) leukemia
[4] = system: HOP-92 NSCLC
[5] = system: HS 578T breast
[6] = system: IGROV1 ovarian
[7] = system: K-562 leukemia
[8] = system: PC-3 prostate
[9] = system: SNB-75 CNS
[10] = system: TK-10 renal

SMILES	GI50 [1]	TGI [1]	GI50 [2]	TGI [2]	GI50 [3]	TGI [3]	GI50 [4]	TGI [4]	TGI [5]	GI50 [6]	TGI [6]	GI50 [7]	TGI [7]	GI50 [8]	TGI [8]	GI50 [9]	TGI [9]	GI50 [10]	TGI [10]	GI50 [5]
O=C1C=CC2C3C(=O)N(c4ccccc4)C(=O)C3C1N2Cc1ccccc1 (centres undefined)	14.9 µM	29.7 µM	1.74 µM	3.89 µM	1.17 µM	8.79 µM	3.66 µM	9.75 µM	13.9 µM	4.81 µM	12.3 µM	1.67 µM	6.55 µM	4.67 µM	13 µM	4.19 µM	15.7 µM	8.08 µM	18.8 µM	
CC(C)[C@@H](C(=O)O[C@@H]1/C=C/C(=O)O[C@@H](C)CCC/C=C/[C@@H]2C[C@H](O)C[C@H]21)N(C)C	24 µM	> 100 µM	16 µM	32.3 µM	13.8 µM	36 µM	0.0403 µM	0.0954 µM	50.5 µM	30.3 µM	> 89 µM	20.3 µM	50.7 µM	6.77 µM	61.6 µM	2.89 µM	27.7 µM	12.4 µM	51.4 µM	6.4 µM
COc1cc(OC)c(/C=C/C(=O)c2c(OC)cc(OC)cc2OC)c(OC)c1	1.72 µM	> 76.3 µM	0.458 µM	33.4 µM	0.637 µM	9.44 µM	0.534 µM	6.5 µM	6.37 µM	0.577 µM	25.2 µM	0.394 µM	> 100 µM	0.992 µM	> 100 µM	1.83 µM	> 26.2 µM	3.31 µM	> 100 µM	1.39 µM
